Measured values as given in patent publication US5468772A, “Tripterinin compound and method” (Pharmagenesis, Inc., priority 1993, dated 1995).

How the values were obtained:
Type in all cases: cell-based
[1] = test system: human peripheral blood lymphocytes; assay: Suppression of human PBL proliferation in vitro ([3H]thymidine incorporation), with or without anti-CD3 (X-35)
Description: One measure of immunosuppression is suppression of stimulated peripheral blood lymphocyte (PBL) proliferation in vitro. In the assay detailed in Example 3, PBLs were activated in vitro by addition of anti-CD3 monoclonal antibody (X-35 antibody). At the same time, purified tripterinin or vehicle (control) was added to each culture, at selected concentrations. After 72 hours incubation, tritiated thymidine was added to the culture medium, and thymidine incorporation into DNA was assayed, as a measure of DNA synthesis associated with cell proliferation.
The ability of tripterifordin to inhibit anti-CD3 stimulated PBL proliferation was assayed at concentrations of 0, 0.78, 3.13, and 12.5 μg/ml, with the results shown in FIG. 9.
Human peripheral blood lymphocytes were prepared using an established method (Boyum). Human blood buffy coat samples, approximately 25 ml/donor, were obtained from the Stanford University Medical Center Blood Bank. Using sterile technique, the buffy coat samples were gently resuspended in a total volume of 100 ml with the addition of calcium and magnesium free Hank's balanced salt solution (HBSS, obtained from Gibco) at room temperature. A volume of 25 ml of the cell suspension was then layered onto 15 ml of Ficoll-Pacque (Pharmacia LKB Biotechnology, Inc.) in a 50 ml conical centrifuge tube. Tubes were centrifuged in a Beckman GPR tabletop centrifuge (GH-3.7 Rotor) at 400×g for 30 minutes at 15° C.
Following centrifugation, the PBL suspensions at the interfaces were transferred to new 50 ml tubes using a transfer pipette, and the PBL samples were resuspended in a total volume of 45 ml HBSS and centrifuged at 354×g for 10 minutes at 15° C. Supernatants were discarded. PBL's were resuspended in 10 ml HBSS, combined to make a total of 45 ml HBSS, and centrifuged at 265×g for 10 minutes at 15° C. The cell pellets were suspended in 10 ml of X-Vivo tissue culture medium (Bio Whittaker) and counted using a hemocytometer. Tissue culture medium was then added to achieve a final cell concentration of 1× 10^6 cells/ml. Additional dilutions were carried out as required for each assay.
Assays were carried out in 96 well sterile tissue culture plates (Costar 3790 and Costar 3595). A volume of 150 μl of X-Vivo medium or sterile distilled water was added to the outer wells of the plate to prevent evaporation of medium within the experimental wells. PBL's from 2 different donors were used in parallel in all experiments. A volume of 100 μl PBL suspension was added to each well using a multichannel pipette. Plates were incubated in an atmosphere of 93% air/7% CO2 in a tissue culture incubator at 37° C. X-35 (AMAC #0178), an anti CD-3 surface antigen antibody, was used at 5 ng/ml to stimulate PBL proliferation.
Tripterinin or tripterifordin was dissolved in ethanol (10 mg/ml) and then diluted in sterile X-Vivo tissue culture medium to obtain the final concentrations required for each experiment.
Four hours prior to the conclusion of incubation, 50 μl of X-Vivo tissue culture medium containing 8 μCi/ml [^3 H]Thymidine (Amersham, 49 Ci/mmol) was added to each tissue culture well. After 72 hours total incubation time, the cells were removed from the tissue culture wells and applied to filter paper using a cell harvester (Brandel Model MB-24). The filter paper was dried for one hour under a heat lamp and then cut into 1 cm discs. Each sample was placed in a scintillation vial containing 2 ml of scintillation fluid (Biosafe, Research Products International Corp.). Samples were counted in a Beckman LS 6000SC scintillation counter.

[2] = test system: HT-2 cells; assay: Inhibition of IL-2 action: IL-2 stimulated HT-2 cell proliferation
Description: Briefly, HT-2 cells were incubated in the presence of IL2, and in the presence of increasing concentrations of tripterinin. After 20 hours incubation, tritiated thymidine was added and the incubation carried out for an additional 4 hours. Cells were harvested and counted as described for PBL proliferation. […] Half maximal inhibition occurred at about 0.1 μg/ml.
The effect of tripterinin on the action of IL-2 was assessed by measurement of the compound's ability to inhibit IL-2 stimulated growth of the IL-2 dependent cell line HT-2, a well-established biological assay of IL-2 action (O'Gara). HT-2 cells were cultured in 75 cm^2 (Corning) tissue culture flasks in RPMI 1640 medium containing 10% fetal bovine serum (Hyclone), 50 μM 2-mercaptoethanol (Fisher), 10 U/ml recombinant human IL-2 (Cetus), 20 mM HEPES, 2 mM glutamine, 100 U/ml penicillin and 100 μg/ml streptomycin. Cells were passaged every 2 days. For experiments, HT-2 cells were centrifuged at 180×g for 10 minutes, washed twice with 10 ml of IL-2 free culture medium and resuspended in RPMI 1640 medium prepared as above, except containing 5% fetal bovine serum. Final cell concentration was 1×10^4 /well. Cultures were incubated with varying concentrations of the tripterinin (95% air/5% CO2, 37° C.) for 20 hours. […] Cells were harvested and counted as described for the PBL proliferation assay.

[3] = test system: mouse thymocytes; assay: Cytotoxicity, MTT reduction, mouse thymocytes; conditions: up to 10 μg/ml, highest tested, 24 h
Description: Potential cytotoxicity of tripterinin was assessed by measurement of the effect of the compound on reduction of MTT (3-[4,5-Dimethylthiazol-2-yl]-2,5-diphenyltetrazolium bromide) by cultured cells, an index of cellular respiration and a sensitive assay for the detection of cytotoxicity (Green, et al.). Toxicity was evaluated in vitro in human PBLs and in mouse thymocytes, as detailed in Example 7. Sodium azide was used as a cytotoxic control. Cytotoxicity was also assessed using the standard method of trypan blue dye staining.
Potential cytotoxicity of tripterinin was assessed by measurement of the compound's effect on the reduction of MTT (3-[4,5-Dimethylthiazol-2-yl]-2,5-diphenyltetrazolium bromide) by cultured cells. MTT, a yellow-colored compound, is reduced by mitochondrial enzymes to form a purple crystalline reduction product (formazan), providing an index of cellular respiration as well as a sensitive assay for cytotoxicity (Green, et al.).
Cytotoxicity was assessed in cultured human PBLs and mouse thymocytes. […] (to solubilize the formazan crystals, the MTT reduction product), optical density was determined at 570-650 nm in a Molecular Devices microtiter plate reader. Data are expressed as the ratio of the optical density of the tripterinin treated sample to that of untreated controls. […]

C[C@]12CCC[C@]3(COC1=O)[C@@H]2CC[C@@]12C[C@@H](CC[C@]13O)[C@](C)(O)C2 [tripterinin]
inhibition of PBL proliferation ([1]; 0.78 μg/ml tripterinin, unstimulated and anti-CD3 stimulated PBLs): substantially complete inhibition
Half maximal inhibition of PBL proliferation ([1]; FIG. 8, 72 h): approximately 0.5 μg/ml
inhibitory effect on PBL proliferation ([1]; stimulated and unstimulated (tripterinin), FIG. 9 (tripterifordin)): inhibited PBL proliferation
inhibition of PBL proliferation, dose dependence ([1]; unstimulated and anti-CD3 stimulated PBLs): dose dependent inhibition
fold inhibition of IL-2 induced DNA synthesis ([2]; concentration range 0 to 0.78 μg/ml): > 10 fold
fold decrease in IL-2 induced HT-2 cell proliferation (thymidine incorporation) ([2]; tripterinin 0.4 μg/ml): more than 10 fold
cytotoxicity (MTT reduction) [3]: No significant toxicity
cytotoxicity (MTT reduction) ([3]; listed as Tripterinin): no significant toxicity
